Patent US20230085307A1, “PYRIDAZINONE COMPOUND AND HERBICIDE” (NISSAN CHEMICAL CORPORATION, priority 2019, published 2023)

Experiments:
late watergrass [1] = assay: Test Example 1: herbicidal activity, application before weed generation under submerged conditions (Table 16, symbol A); format: in vivo, late watergrass (Echinochloa oryzicola)
Method in brief: (§1)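 Alluvial soil was flooded to 4 cm depth, weed seeds were sown mixed and 2.5-leaf rice seedlings were transplanted. On sowing day, the compound's emulsion, diluted in water to a set dose, was applied to the water surface. Plants grew at 25–30 °C and were scored 0–5 after three weeks.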

Japanese bulrush = assay: Test Example 1: herbicidal activity, application before weed generation under submerged conditions (Table 16, symbol B); format: in vivo, Japanese bulrush (Schoenoplectus juncoides)
Method in brief: as §1

late watergrass [2] = assay: Test Example 2: herbicidal activity, application during weed generation under submerged conditions (Table 17, symbol A); format: in vivo, late watergrass (Echinochloa oryzicola); conditions: application during weed generation, submerged conditions
Method in brief: (§2)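 Herbicide emulsion, diluted with water to the chosen amount, is applied onto 4 cm floodwater over alluvial soil where the weeds were co-sown and raised at 25–30° C. Application timing: 1–2 leaves. Assessment: three weeks afterwards.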

oval-leafed pondweed = assay: Test Example 2: herbicidal activity, application during weed generation under submerged conditions (Table 17, symbol C); format: in vivo, oval-leafed pondweed (Monochoria vaginalis); conditions: application during weed generation, submerged conditions
Method in brief: as §2

barnyard grass [3] = assay: Test Example 3: herbicidal effect by foliage application, Wagner pot (Table 18, symbol H); format: in vivo, barnyard grass (Echinochloa crus-galli)
Method in brief: (§3)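 Plants were sown in alluvial soil held under 0.1–0.5 cm standing water and grown 14 days in a greenhouse at 25–30 °C. An emulsifiable formulation, water-diluted to the set dose, was then sprayed onto the foliage, and effects were scored three weeks later using previously defined criteria.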

Chinese sprangletop = assay: Test Example 3: herbicidal effect by foliage application, Wagner pot (Table 18, symbol D); format: in vivo, chinese sprangletop (Leptochloa chinensis)
Method in brief: as §3

rice flat sedge = assay: Test Example 3: herbicidal effect by foliage application, Wagner pot (Table 18, symbol E); format: in vivo, rice flat sedge (Cyperus iria)
Method in brief: as §3

Italian ryegrass = assay: Test Example 4: herbicidal effect by soil treatment (Table 19, symbol K); format: in vivo, Italian ryegrass (Lolium multiflorum); conditions: for herbicidal effect rating, K: Italian ryegrass: amount of applied herbicide 320 g/ha
Method in brief: (§4)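 Herbicidal effect was rated 3 weeks after treatment, using the scoring criteria of an earlier test. The compound, formulated as an emulsion and diluted in water to a set herbicide amount, had been sprayed uniformly on soil over freshly sown seeds. Growth took place in a greenhouse at 25° C. to 30° C.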

windgrass = assay: Test Example 4: herbicidal effect by soil treatment (Table 19, symbol L); format: in vivo, windgrass (Apera spica-venti); conditions: for herbicidal effect rating, L: windgrass: amount of applied herbicide 320 g/ha
Method in brief: as §4

redroot pigweed = assay: Test Example 4: herbicidal effect by soil treatment (Table 19, symbol N); format: in vivo, redroot pigweed (Amaranthus retroflexus); conditions: for herbicidal effect rating, N: redroot pigweed: amount of applied herbicide 320 g/ha
Method in brief: as §4

false cleavers = assay: Test Example 4: herbicidal effect by soil treatment (Table 19, symbol Q); format: in vivo, false cleavers (Galium spurium); conditions: for herbicidal effect rating, Q: false cleavers: amount of applied herbicide 320 g/ha
Method in brief: as §4

southern crabgrass = assay: Test Example 5: herbicidal effect by foliage application, plastic box (Table 20, symbol F); format: in vivo, southern crabgrass (Digitaria ciliaris); conditions: foliage application; for herbicidal effect grade, F: southern crabgrass: 320 g/ha, three weeks after application
Method in brief: (§5)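 Foliar spray test: emulsion formulation diluted in water to a set application rate, sprayed onto 14-day-old plants raised in diluvial soil at 25° C to 30° C under glass. Both herbicidal effect and crop effect rated visually three weeks later.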

green foxtail = assay: Test Example 5: herbicidal effect by foliage application, plastic box (Table 20, symbol G); format: in vivo, green foxtail (Setaria viridis); conditions: foliage application; for herbicidal effect grade, G: green foxtail: 320 g/ha, three weeks after application
Method in brief: as §5

barnyard grass [4] = assay: Test Example 5: herbicidal effect by foliage application, plastic box (Table 20, symbol H); format: in vivo, barnyard grass (Echinochloa crus-galli); conditions: foliage application; for herbicidal effect grade, H: barnyard grass: 320 g/ha, three weeks after application
Method in brief: as §5

wild oat = assay: Test Example 5: herbicidal effect by foliage application, plastic box (Table 20, symbol I); format: in vivo, wild oat (Avena fatua); conditions: foliage application; for herbicidal effect grade, I: wild oat: 320 g/ha, three weeks after application
Method in brief: as §5

blackgrass = assay: Test Example 5: herbicidal effect by foliage application, plastic box (Table 20, symbol J); format: in vivo, blackgrass (Alopecurus myosuroides); conditions: foliage application; for herbicidal effect grade, J: blackgrass: 320 g/ha, three weeks after application
Method in brief: as §5

persian speedwell = assay: Test Example 5: herbicidal effect by foliage application, plastic box (Table 20, symbol R); format: in vivo, Persian speedwell (Veronica persica); conditions: foliage application; for herbicidal effect grade, R: persian speedwell: 320 g/ha, three weeks after application
Method in brief: as §5

[5] = 187 g/ha, 3 weeks after application

| SMILES | Herbicidal effect on A: late watergrass (grade 0-5) (late watergrass [1]; 320 g/ha applied herbicide) | Herbicidal effect on B: Japanese bulrush (grade 0-5) (Japanese bulrush; 320 g/ha applied herbicide) | herbicidal effect rating, A: late watergrass (late watergrass [2]; AAH 320 g/ha) | herbicidal effect rating, C: oval-leafed pondweed (oval-leafed pondweed; AAH 320 g/ha) | herbicidal effect on H (barnyard grass), rating 0-5 (barnyard grass [3]; 320 g/ha) | herbicidal effect on D (Chinese sprangletop), rating 0-5 (Chinese sprangletop; 320 g/ha) | herbicidal effect on E (rice flat sedge), rating 0-5 (rice flat sedge; 320 g/ha) | herbicidal effect rating, K: Italian ryegrass (Italian ryegrass) | herbicidal effect rating, L: windgrass (windgrass) | herbicidal effect rating, N: redroot pigweed (redroot pigweed) | herbicidal effect rating, Q: false cleavers (false cleavers) | herbicidal effect grade, F: southern crabgrass (southern crabgrass) | herbicidal effect grade, G: green foxtail (green foxtail) | herbicidal effect grade, H: barnyard grass (barnyard grass [4]) | herbicidal effect grade, I: wild oat (wild oat) | herbicidal effect grade, J: blackgrass (blackgrass) | herbicidal effect grade, R: persian speedwell (persian speedwell) | further results |
| --- | --- | --- | --- | --- | --- | --- | --- | --- | --- | --- | --- | --- | --- | --- | --- | --- | --- | --- |
| C#CC(C)Oc1ccc(-c2sc3ccccc3c2-c2c(OCOCCOC)c(C)nn(C)c2=O)cc1 (racemic) [1-218] | – | – | – | – | – | – | – | – | – | – | – | – | – | – | – | – | – | Herbicidal effect on A: late watergrass (grade 0-5) (late watergrass [1]; 100 g/ha applied herbicide): 4 (Herbicidal rate of 70% or more and less than 90%); Herbicidal effect on B: Japanese bulrush (grade 0-5) (Japanese bulrush; 100 g/ha applied herbicide): 3 (Herbicidal rate of 40% or more and less than 70%); herbicidal effect rating, A: late watergrass (late watergrass [2]; AAH 100 g/ha): 3 (Herbicidal rate of 40% or more and less than 70%); herbicidal effect rating, C: oval-leafed pondweed (oval-leafed pondweed; AAH 100 g/ha): 4 (Herbicidal rate of 70% or more and less than 90%); herbicidal effect on H (barnyard grass), rating 0-5 (barnyard grass [3]; 100 g/ha): 4 (Herbicidal rate of 70% or more and less than 90%); herbicidal effect on D (Chinese sprangletop), rating 0-5 (Chinese sprangletop; 100 g/ha): 4 (Herbicidal rate of 70% or more and less than 90%); herbicidal effect on E (rice flat sedge), rating 0-5 (rice flat sedge; 100 g/ha): 4 (Herbicidal rate of 70% or more and less than 90%); K: Italian ryegrass, herbicidal effect rating (Italian ryegrass; AAH 187 g/ha): 0 (Herbicidal rate of 5% or less (almost no effect)); L: windgrass, herbicidal effect rating (windgrass; AAH 187 g/ha): 0 (Herbicidal rate of 5% or less (almost no effect)); N: redroot pigweed, herbicidal effect rating (redroot pigweed; AAH 187 g/ha): 2 (Herbicidal rate of 20% or more and less than 40%); Q: false cleavers, herbicidal effect rating (false cleavers; AAH 187 g/ha): 0 (Herbicidal rate of 5% or less (almost no effect)); effect on southern crabgrass (F) (southern crabgrass; [5]): 0 (Herbicidal rate of 5% or less (almost no effect)); effect on green foxtail (G) (green foxtail; [5]): 5 (Herbicidal rate of 90% or more (almost completely withered)); effect on barnyard grass (H) (barnyard grass [4]; [5]): 3 (Herbicidal rate of 40% or more and less than 70%); effect on wild oat (I) (wild oat; [5]): 0 (Herbicidal rate of 5% or less (almost no effect)); effect on blackgrass (J) (blackgrass; [5]): 4 (Herbicidal rate of 70% or more and less than 90%); effect on persian speedwell (R) (persian speedwell; [5]): 5 (Herbicidal rate of 90% or more (almost completely withered)) |
| CCCOc1ccccc1-c1sc2ccccc2c1-c1c(O)c(C)nn(C)c1=O [1-015] | 3 (Herbicidal rate of 40% or more and less than 70%) | 3 (Herbicidal rate of 40% or more and less than 70%) | 3 (Herbicidal rate of 40% or more and less than 70%) | 2 (Herbicidal rate of 20% or more and less than 40%) | 5 (Herbicidal rate of 90% or more (almost completely withered)) | 3 (Herbicidal rate of 40% or more and less than 70%) | 5 (Herbicidal rate of 90% or more (almost completely withered)) | 0 (Herbicidal rate of 5% or less (almost no effect)) | 5 (Herbicidal rate of 90% or more (almost completely withered)) | 0 (Herbicidal rate of 5% or less (almost no effect)) | 3 (Herbicidal rate of 40% or more and less than 70%) | 3 (Herbicidal rate of 40% or more and less than 70%) | 4 (Herbicidal rate of 70% or more and less than 90%) | 3 (Herbicidal rate of 40% or more and less than 70%) | 3 (Herbicidal rate of 40% or more and less than 70%) | 5 (Herbicidal rate of 90% or more (almost completely withered)) | 5 (Herbicidal rate of 90% or more (almost completely withered)) | – |
| Cc1nn(C)c(=O)c(-c2c(-c3ccccc3OC(F)(F)F)sc3ccccc23)c1O [1-030] | 2 (Herbicidal rate of 20% or more and less than 40%) | 5 (Herbicidal rate of 90% or more (almost completely withered)) | 1 (Herbicidal rate of 5% or more and less than 20%) | 3 (Herbicidal rate of 40% or more and less than 70%) | 5 (Herbicidal rate of 90% or more (almost completely withered)) | 3 (Herbicidal rate of 40% or more and less than 70%) | 4 (Herbicidal rate of 70% or more and less than 90%) | 3 (Herbicidal rate of 40% or more and less than 70%) | 5 (Herbicidal rate of 90% or more (almost completely withered)) | 5 (Herbicidal rate of 90% or more (almost completely withered)) | 5 (Herbicidal rate of 90% or more (almost completely withered)) | 5 (Herbicidal rate of 90% or more (almost completely withered)) | 5 (Herbicidal rate of 90% or more (almost completely withered)) | 4 (Herbicidal rate of 70% or more and less than 90%) | 4 (Herbicidal rate of 70% or more and less than 90%) | 5 (Herbicidal rate of 90% or more (almost completely withered)) | 5 (Herbicidal rate of 90% or more (almost completely withered)) | – |
| CCCC(=O)Oc1c(C)nn(C)c(=O)c1-c1c(-c2ccc(C(C)=NOC)cc2)sc2ccccc12 [1-044] | 5 (Herbicidal rate of 90% or more (almost completely withered)) | 5 (Herbicidal rate of 90% or more (almost completely withered)) | 4 (Herbicidal rate of 70% or more and less than 90%) | 1 (Herbicidal rate of 5% or more and less than 20%) | 4 (Herbicidal rate of 70% or more and less than 90%) | 4 (Herbicidal rate of 70% or more and less than 90%) | 5 (Herbicidal rate of 90% or more (almost completely withered)) | 2 (Herbicidal rate of 20% or more and less than 40%) | 0 (Herbicidal rate of 5% or less (almost no effect)) | 4 (Herbicidal rate of 70% or more and less than 90%) | 4 (Herbicidal rate of 70% or more and less than 90%) | 4 (Herbicidal rate of 70% or more and less than 90%) | 5 (Herbicidal rate of 90% or more (almost completely withered)) | 3 (Herbicidal rate of 40% or more and less than 70%) | 4 (Herbicidal rate of 70% or more and less than 90%) | 3 (Herbicidal rate of 40% or more and less than 70%) | 5 (Herbicidal rate of 90% or more (almost completely withered)) | – |
